Assay results from patent publication US20250009856A1, “METHODS FOR TREATING RESPIRATORY DISEASES” (MUCPharm Pty Ltd, priority 2021, published 2025).
“And” between values parts separate entries of the source, which are not always exact repeats. Equal entries are not always repeated.

Experiments:
[1] = Pipette flow speed after aerosol treatment; design: species or system human; settings: SS; for Pipette flow speed (€), After: before 0.0137 ± 0.005
Protocol: Six grams of soft PMP mucin was homogenised using a shredder with phosphate buffer saline (PBS) (3.0 ml) with sonification and vortexed until a homogenous mixture was formed, with incubation at 37° C. to remove air bubbles and after which viscosity was adjusted (further dilutions with PBS). The pH was adjusted to 7.0 using either 1.0 M NaOH or 0.1 N Hydrochloric acid. Using a 0.5 ml glass pipette fixed at an angle of 60°, 0.5 ml of sample at 25° C. (ambient room temperature) was sucked up the pipette and the time taken to empty 0.3 ml of the sample was timed in sec. Pipette flow time (€) was calculated as follows: € (ml/sec)=0.3 ml/Time to empty 0.3 ml (sec) A similar investigation as above was carried out to determine a comparative dynamic viscosity and pipette flow time for PMP mucin simulated sputa (SS). A similar treatment as in the experiment described above for NAC was carried out using Bromelain (125 and 250 μg/ml) in PBS (pH.7.0) along with control using PBS (pH.7.0). Both dynamic viscosity and pipette flow time was measured as outlined earlier for both artificial and PMP simulated sputa models. Using a combination of NAC (20 mg/ml) with either 125 or 250 μg/ml Bromelain in PBS (pH.7.0), a similar investigation was carried out as outlined earlier and measurements were made for both artificial and simulated sputa models. D=(TREATED)−(UNTREATED/(UNTREATED)×100.

sheep lungs = test: Ventilated sheep lung model, endotracheal tube plugged with PMP mucin; settings: nebulised twice over 60 minutes; saline showed slight drop

CC(=O)N[C@@H](CS)C(=O)O [NAC, N-acetylcysteine]
D (%), increase of pipette flow speed (€) ([1]; aerosol NAC 10 mg/ml): 34% and 34 ↑ %
Pipette flow speed (€), After ([1]; aerosol NAC 10 mg/ml): 0.0183 ± 0.001 mL/s
D (%), increase of pipette flow speed (€) ([1]; aerosol NAC 20 mg/ml): 46% and 46 ↑ %
Pipette flow speed (€), After ([1]; aerosol NAC 20 mg/ml): 0.02 ± 0.002 mL/s
Minute volume (MV) over 60 minutes (sheep lungs): substantial rise in MV
